Source: patent publication US12623942B2, “Method for extracting salts and temperature- regenerated extracting composition” (ADIONICS, priority 2016, dated 2026)
Converted amounts (≈) assume the structure as drawn. Values belong to the molecule of their own block, whether it stands above or below them.

Legend:
Solubility in water = assay type: physicochemical
Source text: The hydrophoby or the solubility in water of a compound may be measured by standard methods and, especially, by UV/visible spectroscopy.

[1] = Complexing constant Log K in methanol at 25° C.; assay type: binding
Protocol: K is the complexing constant of a CEM and a […] cation in methanol, at 25° C., which is measured according to the standard method of isothermal calorimetric titration.

[2] = Liquid-liquid extraction of mono-salt saline solution; conditions: for Extraction rate at room temperature (RT), BaCl2 / Extraction rate at room temperature (RT), CaCl2 / Extraction rate at room temperature (RT), KCl / Extraction rate at room temperature (RT), LiCl / Extraction rate at room temperature (RT), MgCl2 / Extraction rate at room temperature (RT), NaCl / Extraction rate at room temperature (RT), SrCl2: 0.1M CEM + 3.52M ASM2 in CH2Cl2, initial salt 0.1 mol/L, Org./Water = 1, molar %
Source text: The extracting composition is obtained by solubilizing an amount of CEM and ASM in the selected fluidizing agent, dichloromethane CH2Cl2, dichlorobenzene or dichlorotoluene or any other fluidizing agent able to well solubilize the mixture CEM/ASM in order to obtain the searched final concentrations after solubilizing CEMs and ASMs in a minimum of 3 milliliters of fluidizing agent. If the selected fluidizing agent is also an ASM compound, so the selected ASM volume is at least 3 milliliters. The given concentrations of ASM2 and ASM9 are related to the added fluidizing agent volume and the concentrations of CEM are related to the added fluidizing agent+ASM volume. The extracting organic composition is then lightly heated so as to promote the solubilization of the organic compounds by means of a heat gun (temperature around 50 to 60° C.) for a few seconds (10 to 30 seconds) until a clear solution is obtained. The composition is thus left for 24 hours at room temperature so as to make sure that the obtained formulation is stable.
These sealed formulations are then orbitally stirred at 500 revolutions/minute for two hours after adding an equivalent volume of water which was distilled twice so as to allow a water saturation of the whole formulation and a pH control at the inlet and at the outlet (pH close to 7, or at least maintained after contact with the saturation water).
3 mL of the prepared extracting organic composition are then taken from the lower phase of the decanted diphasic mixture and transferred to a vial containing 3 mL of the water containing the one or more considered chloride salts (NaCl or others), then the vial is sealed and orbitally stirred (at 500 revolutions per minute) for 2 hours at room temperature (RT), that is to say between 20 and 25° C.
A verification is made to make sure that droplets in the range of 1-2 mm are really present during these stirrings in order to be sure that an equilibrium in the distribution of the considered chloride salt (NaCl or other) is achieved between both liquid phases at the end of stirring. The aspect of the organic and aqueous phases is clear and colorless or slightly turbid.
Once the 2-hour stirring is carried out, the stirring is stopped and the whole is left for decantation for about 10 minutes, at least until both phases are completely separated, at the temperature of the assay. Then, the upper aqueous phase is taken then stirred and diluted in order to analyze its salinity by a ion chromatography (a Metrohm™ device including a cation analyzing column and an anion analyzing column suitable for the ions and for the concentration of the salts which are searched for). Likewise, the chloride salt (NaCl or other) initial aqueous solution is also analyzed by this ion chromatography to determine its cation and chloride molar relative concentration before the extraction. All the extractions and analyses were duplicated.
The considered extracting composition comprises 0.1 mol/L of CEM1 and 3.52 mol/L of ASM2 in dichloromethane CH2Cl2, which was obtained as described above. The initial concentration of the considered salt in water, whether it is LiCl, NaCl, KCl, MgCl2, CaCl2, SrCl2 or BaCl2, is 0.1 mol/L.
After carrying out these 7 specific extractions (duplicated) of salts, the amounts of extracted cations in relative molar percentage before and after extraction at room temperature and at water/extracting formulation iso-volume are indicated in table I: […]

[3] = mono-salt solutions, 0.1M CEM + 3.52M ASM2 in CH2Cl2, RT

Solubility in water (Solubility in water): 2290 µM (≈ 559 µg/mL)
SMILES: OCc1cc(C(F)(F)F)cc(C(F)(F)F)c1 [ASM2, [3,5-Bis(Trifluoromethyl)phenyl]methanol]

Log K(Ba^++, MeOH, 25° C.) [1]: 6.8
Log K(Ca^++, MeOH, 25° C.) [1]: 7.8
Log K(Cs^+, MeOH, 25° C.) [1]: 1.0
Log K(K^+, MeOH, 25° C.) [1]: 5.4
Log K(Li^+, MeOH, 25° C.) [1]: 3.0
Log K(Mg^++, MeOH, 25° C.) [1]: 1.2
Log K(Na^+, MeOH, 25° C.) [1]: 7.2
Log K(Rb^+, MeOH, 25° C.) [1]: 3.0
Log K(Sr^++, MeOH, 25° C.) [1]: 8.1
SMILES: CC(C)(C)c1cc2c(OCC(=O)N3CCCC3)c(c1)Cc1cc(C(C)(C)C)cc(c1OCC(=O)N1CCCC1)Cc1cc(C(C)(C)C)cc(c1OCC(=O)N1CCCC1)Cc1cc(C(C)(C)C)cc(c1OCC(=O)N1CCCC1)C2 [CEM 4, 4-tert-butyl-Calix[4]arene tetrakis(N-pyrrolidinylacetamide)]

Solubility in water (Solubility in water): 70 µM (≈ 22.4 µg/mL)
SMILES: OC(c1cccc(C(F)(F)F)c1)c1cccc(C(F)(F)F)c1 [ASM8]

Solubility in water (Solubility in water): 32000 µM (≈ 5640 µg/mL)
SMILES: OCc1cccc(C(F)(F)F)c1 [ASM1, 3-(trifluoromethyl)benzyl alcohol]

Solubility in water (Solubility in water): 480 µM (≈ 137 µg/mL)
SMILES: CCCC(O)c1cc(C(F)(F)F)cc(C(F)(F)F)c1 (stereo not shown) [ASM7]

Solubility in water (Solubility in water): 390 µM (≈ 122 µg/mL)
SMILES: OCc1cc(C(F)(F)F)c(C(F)(F)F)c(C(F)(F)F)c1 [ASM4]

Log K(Cs^+, MeOH, 25° C.) [1]: 5.5
Log K(K^+, MeOH, 25° C.) [1]: 5.3
Log K(Li^+, MeOH, 25° C.) [1]: 1.0
Log K(Na^+, MeOH, 25° C.) [1]: 4.4
Log K(Rb^+, MeOH, 25° C.) [1]: 5.6
SMILES: CCOC(=O)COc1c2cc(C(C)(C)C)cc1Cc1cc(C(C)(C)C)cc(c1OCC(=O)OCC)Cc1cc(C(C)(C)C)cc(c1OCC(=O)OCC)Cc1cc(C(C)(C)C)cc(c1OCC(=O)OCC)Cc1cc(C(C)(C)C)cc(c1OCC(=O)OCC)C2 [CEM 11, 4-tert-Butylcalix[5]arene-pentaacetic acid pentaethyl ester]

Further lines, the molecule ahead of its results:

SMILES: CC(O)c1cccc(C(F)(F)C(F)(F)C(F)(F)F)c1 (stereo not shown) [ASM5]
Solubility in water (Solubility in water): 420 µM (≈ 122 µg/mL)

SMILES: CCN(CC)C(=O)COc1c2cc(C(C)(C)C)cc1Cc1cc(C(C)(C)C)cc(c1OCC(=O)N(CC)CC)Cc1cc(C(C)(C)C)cc(c1OCC(=O)N(CC)CC)Cc1cc(C(C)(C)C)cc(c1OCC(=O)N(CC)CC)Cc1cc(C(C)(C)C)cc(c1OCC(=O)N(CC)CC)Cc1cc(C(C)(C)C)cc(c1OCC(=O)N(CC)CC)Cc1cc(C(C)(C)C)cc(c1OCC(=O)N(CC)CC)Cc1cc(C(C)(C)C)cc(c1OCC(=O)N(CC)CC)C2 [CEM 9, 4-tert-butyl-Calix[8]arene octakis(N,N-diethylacetamide)]
Log K(Ca^++, MeOH, 25° C.) [1]: 7.2

SMILES: CCOC(=O)COc1c2cc(C(C)(C)C)cc1Cc1cc(C(C)(C)C)cc(c1OCC(=O)OCC)Cc1cc(C(C)(C)C)cc(c1OCC(=O)OCC)Cc1cc(C(C)(C)C)cc(c1OCC(=O)OCC)C2 [CEM10, 4-tert-Butylcalix[4]arene-tetraacetic acid tetraethyl ester]
Log K(Cs^+, MeOH, 25° C.) [1]: 2.7
Log K(K^+, MeOH, 25° C.) [1]: 2.4
Log K(Li^+, MeOH, 25° C.) [1]: 2.6
Log K(Na^+, MeOH, 25° C.) [1]: 5.0
Log K(Rb^+, MeOH, 25° C.) [1]: 3.1
Extraction rate at room temperature (RT), BaCl2 [2]: 3.7%
Extraction rate at room temperature (RT), CaCl2 [2]: 4.7%
Extraction rate at room temperature (RT), KCl [2]: 14.4%
Extraction rate at room temperature (RT), LiCl [2]: 5.5%
Extraction rate at room temperature (RT), MgCl2 [2]: 5.1%
Extraction rate at room temperature (RT), NaCl [2]: 66.2%
Extraction rate at room temperature (RT), SrCl2 [2]: 5.9%
Na/Ca selectivity [2, 3]: 14

SMILES: OCc1cc(C(F)(F)C(F)(F)C(F)(F)C(F)(F)F)cc(C(F)(F)C(F)(F)C(F)(F)C(F)(F)F)c1 [ASM3]
Solubility in water (Solubility in water): 0.5 µM (≈ 0.272 µg/mL)

SMILES: CCOC(=O)COc1c2cc(C(C)(C)C)cc1Cc1cc(C(C)(C)C)cc(c1OCC(=O)OCC)Cc1cc(C(C)(C)C)cc(c1OCC(=O)OCC)Cc1cc(C(C)(C)C)cc(c1OCC(=O)OCC)Cc1cc(C(C)(C)C)cc(c1OCC(=O)OCC)Cc1cc(C(C)(C)C)cc(c1OCC(=O)OCC)C2 [CEM12, 4-tert-Butylcalix[6]arene-hexaacetic acid hexaethyl ester]
Extraction rate at room temperature (RT), BaCl2 [2]: 11.8%
Extraction rate at room temperature (RT), CaCl2 [2]: 5.5%
Extraction rate at room temperature (RT), KCl [2]: 55.7%
Extraction rate at room temperature (RT), LiCl [2]: 9.0%
Extraction rate at room temperature (RT), MgCl2 [2]: 5.4%
Extraction rate at room temperature (RT), NaCl [2]: 29.6%
Extraction rate at room temperature (RT), SrCl2 [2]: 4.6%
K/Ca selectivity [2, 3]: 10.2
